Results reported in patent publication US8236827B2, “Compounds” (Spear Therapeutics Limited, priority 2009, dated 2012).

Assays:
[1] = Cytotoxicity (MTS) in CHO/CYP1A1 cells; type: cell-based, Chinese Hamster; conditions: Chinese hamster; 96 h, MTS
Experimental: (§1) CHO/CYP1A1 and CHO/CYP1B1 cells: CHO cells containing recombinant CYP1A1 and recombinant CYP1B1 co-expressing P450 reductase, namely (CHO/CYP1A1) and (CHO/CYP1B1) respectively, were cultured using the standard culture medium for CHO cells supplemented with 0.4 mg/ml G418 disulfate salt and 0.3 μM methotrexate (Sigma/Aldrich Co., Gillingham, Dorset, UK) according to methods described in the literature (ibid.) Cells were grown at 37° C. in a humidified atmosphere plus 5% CO2.
(§2) A single cell suspension of CHO, CHO/CYP1A1 or CHO/CYP1B1 in 100 μl of the required cell culture medium was seeded onto 96-well plates at a cell density of 1500 cells per well and placed in an incubator for 24 h at 37° C. The stock solution of test compound in DMSO was then added to give a concentration range of 100, 30, 10, 3, 1, 0.3, 0.1, 0.03, 0.01, 0.003, 0.001, 0 μM. The final concentration of DMSO 0.2% was found not to affect the growth characteristics of the various CHO cell lines. The cells were incubated with the test compound for 96 h after which all the medium was aspirated and replaced with 100 μl of fresh medium to compensate for the loss of medium due to evaporation. The cells were incubated with 20 μl of the MTS assay reagent for 1.5 h and the absorbance per well at 510 nm measured using a plate reader. The mean absorbance and standard deviation for each test compound concentration was calculated versus a series of controls including (a) cells plus medium, (b) cell plus medium containing DMSO 0.2%, (c) medium alone, and (d) medium containing DMSO 0.2% and a range of test compound concentrations from 0 to 100 μM.
(§3) The MTS assay is a homogeneous, colorimetric method for determining the number of viable cells in proliferation, cytotoxicity or chemosensitivity assays (Cali J J, et al., “Luminescence-Based Methods and Probes for Measuring Cytochrome P450 Activity”, pp. 1-29. Promega Corporation, United States, 2004, the contents of which are incorporated herein by reference). The assay is composed of solutions of tetrazolium compound [3-(4,5-dimethylthiazol-2-yl)-5-(3-carboxymethoxyphenyl)-2-(4-sulfophenyl)-2H-tetrazolium, inner salt; MTS] and an electron coupling reagent (phenazine methosulfate) PMS. MTS is bioreduced by cells into a formazan product that is soluble in tissue culture medium. The absorbance of the formazan product at 510 nm can be directly measured from 96-well assay plates. The quantity of formazan product as measured by the amount of absorbance at 490 or 510 nm is directly proportional to the number of living cells in culture.

CHO/CYP1A1 cells = test: Cytotoxicity (MTS) in CHO/CYP1A1 cells; type: cell-based, Chinese Hamster
Experimental: as §1, §2, §3

[2] = Cytotoxicity (MTS) in CHO/CYP1B1 cells; type: cell-based, Chinese Hamster; conditions: Chinese hamster
Experimental: as §1, §2, §3

CHO/CYP1B1 cells = test: Cytotoxicity (MTS) in CHO/CYP1B1 cells; type: cell-based, Chinese Hamster
Experimental: as §1, §2, §3

wild-type CHO cells = test: Cytotoxicity (MTS) in wild-type CHO cells; type: cell-based, Chinese Hamster; conditions: for IC50: Cricetulus griseus, CHO, 96 h, MTS
Experimental: CHO cells: Chinese Hamster Ovary (CHO) DUKXB11 cells were grown under standard cell culture conditions in α-MEM supplemented with 10% FCS, 1 unit/ml each of hypoxanthine and thymidine, and penicillin (100 IU/ml) and streptomycin (100 μg/ml) according to literature methods (Ding S, et al., Arch. Biochem. Biophys., 348: 403-410, 1997, the contents of which are incorporated herein by reference). Cells were grown at 37° C. in a humidified atmosphere plus 5% CO2.
as §2, §3

CYP1A2 = biological target: T1, CYP1A2 (Homo sapiens, UniProt P05177); test: CYP phenotyping, metabolic stability; type: in vitro ADME; conditions: CYP1A2 (40 pm/mL)
T1 sequence (P05177 1-516): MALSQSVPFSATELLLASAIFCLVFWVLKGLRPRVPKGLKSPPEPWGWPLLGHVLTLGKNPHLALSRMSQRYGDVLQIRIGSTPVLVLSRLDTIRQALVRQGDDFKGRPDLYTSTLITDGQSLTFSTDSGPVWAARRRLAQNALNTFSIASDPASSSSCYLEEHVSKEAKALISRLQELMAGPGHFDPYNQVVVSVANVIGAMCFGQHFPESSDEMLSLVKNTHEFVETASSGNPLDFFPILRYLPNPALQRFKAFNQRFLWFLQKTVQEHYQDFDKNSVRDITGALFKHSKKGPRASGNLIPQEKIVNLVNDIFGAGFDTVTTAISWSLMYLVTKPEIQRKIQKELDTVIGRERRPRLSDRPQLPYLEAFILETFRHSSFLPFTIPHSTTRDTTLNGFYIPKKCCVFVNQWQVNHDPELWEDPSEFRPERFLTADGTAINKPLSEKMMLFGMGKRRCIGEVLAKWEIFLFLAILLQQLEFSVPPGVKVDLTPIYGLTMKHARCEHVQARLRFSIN
Experimental: (§4) As mentioned above, a feature of the compounds of the invention is their metabolism by CYP1B1 which is expressed at high frequency in a wide range of human cancers of different histogenetic types, but not in normal tissues. […] Compounds V and II were exposed to a panel of six CYPs (see Table 5 below).
(§5) CYP metabolism studies were performed by Cerep Laboratories (Redmond, Wash., USA). Compounds were screened in duplicate at 1 μM in the presence of CYP enzyme, NADP (1.3 mM), D-Glucose-6-phosphate (3.3 mM) and Glucose-6-phosphate dehydrogenase. Following incubation at 0 and 60 minutes, parent compound levels were determined using standard HPLC/MS/MS procedures. The results are expressed as percent parent compound remaining after 60 minutes.

CYP3A5 = CYP3A5 (Homo sapiens, UniProt P20815); test: CYP phenotyping, metabolic stability; type: in vitro ADME; conditions: CYP3A5 (10 pm/mL)
Experimental: as §4, §5

[3] = test system: UTSCC-14 xenograft tumours; test: UTSCC-14 xenograft study in nu/nu mice; type: in vivo; conditions: 7, 20, 50 mg/kg i.p. daily for 29 days; tumours excised day 40; versus vehicle control
Experimental: The study compared the efficacy of Compound II with a vehicle control in UTSCC-14 xenograft tumours at three different dose levels.
Forty female nu/nu mice (7-9 wks old, weight 20-25 grams) were implanted sc with 2e6 UTSCC-14 cells and randomized 10 days later into […] (Table 1) with an approximate tumour volume of 100-150 mm-3. All groups were dosed daily ip for 29 days. On day 40 tumours were excised and weighed.
The UTSCC-14 cells used in the experiment were sourced from Professor Reidar Grénman's laboratory at the University of Turku, Department of Head and Neck Surgery, Turku University, Turku, Finland) and taken from a grade II primary tumour from the tongue of a head and neck cancer patient.
Compound II was dissolved/suspended in 100% cell culture grade DMSO at 40 mg/ml, before dilution with ddH20 immediately prior to dosing to make a stock 50% DMSO/Water solution. This stock solution was used to prepare all doses by dilution with 50% DMSO/Water to achieve the required concentration.
FIG. 2 compares the weight in grams of tumours excised on day 40 of the study. […] The study provides evidence that Compound II (and related compounds described here) are useful in the development of novel cancer therapies.

CYP3A4 = CYP3A4 (Homo sapiens, UniProt P08684); test: CYP phenotyping, metabolic stability; type: in vitro ADME; conditions: CYP3A4 (10 pm/mL); 1 μM; after 60 minutes
Experimental: (§6) Compounds V and II were exposed to a panel of six CYPs (see Table 5 below).
as §5

CYP2C9 = CYP2C9 (Homo sapiens, UniProt P11712); test: CYP phenotyping, metabolic stability; type: in vitro ADME; conditions: CYP2C9 (10 pm/mL); 1 μM; after 60 minutes
Experimental: as §6, §5

CYP2D6 = CYP2D6 (Homo sapiens, UniProt P10635); test: CYP phenotyping, metabolic stability; type: in vitro ADME; conditions: CYP2D6 (10 pm/mL); 1 μM; after 60 minutes
Experimental: as §6, §5

CYP2C19 = CYP2C19 (Homo sapiens, UniProt P33261); test: CYP phenotyping, metabolic stability; type: in vitro ADME; conditions: CYP2C19 (10 pm/mL); 1 μM; after 60 minutes
Experimental: as §6, §5

FLT-3 = FLT-3 (Homo sapiens, UniProt P36888); test: Cerep kinase screen; type: biochemical; conditions: read-out: % Inhibition of Control
Experimental: (§7) Kinase screening was performed by Cerep Laboratories (Celle l′Evescault, France). Compounds were screened in duplicate at a single concentration (10 μM). The results, set forth in Table 4 below, are expressed as percent inhibition of control specific activity: {100−[(measured specific activity/control specific activity)×100]} obtained in the presence of Compound XI and Compound V. ATP concentrations correspond to the ATP Km value for each individual kinase (Cerep, private communication). In each experiment, a reference compound was tested concurrently with Compound XI and Compound V in order to assess the assay reliability. IC50 values for the reference compounds were within accepted limits (±0.5 log units) of the historic average.

Lyn = Lyn (Homo sapiens, UniProt P07948); test: Cerep kinase screen; type: biochemical; conditions: read-out: % Inhibition of Control
Experimental: as §7

FGFR4 = FGFR4 (Homo sapiens, UniProt P22455); test: Cerep kinase screen; type: biochemical; conditions: read-out: % Inhibition of Control
Experimental: as §7

FGFR2 = FGFR2 (Homo sapiens, UniProt P21802); test: Cerep kinase screen; type: biochemical; conditions: read-out: % Inhibition of Control
Experimental: as §7

C-Met (HGFR) = C-Met (HGFR) (Homo sapiens, UniProt P08581); test: Cerep kinase screen; type: biochemical; conditions: read-out: % Inhibition of Control
Experimental: as §7

CSK = CSK (Homo sapiens, UniProt P41240); test: Cerep kinase screen; type: biochemical; conditions: read-out: % Inhibition of Control
Experimental: as §7

KDR (VEGFR2) = KDR (VEGFR2) (Homo sapiens, UniProt P35968); test: Cerep kinase screen; type: biochemical; conditions: read-out: % Inhibition of Control
Experimental: as §7

PDGFRβ = PDGFRβ (Homo sapiens, UniProt P09619); test: Cerep kinase screen; type: biochemical; conditions: read-out: % Inhibition of Control
Experimental: as §7

Fyn = Fyn (Homo sapiens, UniProt P06241); test: Cerep kinase screen; type: biochemical; conditions: read-out: % Inhibition of Control
Experimental: as §7

FLT-1 = FLT-1 (Homo sapiens, UniProt P17948); test: Cerep kinase screen; type: biochemical; conditions: read-out: % Inhibition of Control
Experimental: as §7

[4] = 96 h, MTS, read-out: CHO/CYP1B1 IC50

CYP3A5, sequence (P20815 whole entry, species assumed): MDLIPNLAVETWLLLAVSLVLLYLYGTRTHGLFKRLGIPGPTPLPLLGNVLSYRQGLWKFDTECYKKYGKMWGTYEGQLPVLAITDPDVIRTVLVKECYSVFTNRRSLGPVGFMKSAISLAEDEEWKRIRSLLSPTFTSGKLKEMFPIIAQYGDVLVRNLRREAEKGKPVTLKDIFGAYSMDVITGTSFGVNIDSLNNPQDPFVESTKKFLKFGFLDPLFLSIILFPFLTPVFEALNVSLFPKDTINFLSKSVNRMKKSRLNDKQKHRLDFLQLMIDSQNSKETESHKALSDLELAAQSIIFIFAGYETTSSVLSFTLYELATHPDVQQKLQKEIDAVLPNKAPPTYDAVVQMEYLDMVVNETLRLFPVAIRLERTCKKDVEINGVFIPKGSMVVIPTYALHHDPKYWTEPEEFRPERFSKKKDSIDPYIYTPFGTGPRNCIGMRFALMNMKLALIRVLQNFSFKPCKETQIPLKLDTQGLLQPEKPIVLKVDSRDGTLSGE
CYP2D6, sequence (P10635 whole entry, species assumed): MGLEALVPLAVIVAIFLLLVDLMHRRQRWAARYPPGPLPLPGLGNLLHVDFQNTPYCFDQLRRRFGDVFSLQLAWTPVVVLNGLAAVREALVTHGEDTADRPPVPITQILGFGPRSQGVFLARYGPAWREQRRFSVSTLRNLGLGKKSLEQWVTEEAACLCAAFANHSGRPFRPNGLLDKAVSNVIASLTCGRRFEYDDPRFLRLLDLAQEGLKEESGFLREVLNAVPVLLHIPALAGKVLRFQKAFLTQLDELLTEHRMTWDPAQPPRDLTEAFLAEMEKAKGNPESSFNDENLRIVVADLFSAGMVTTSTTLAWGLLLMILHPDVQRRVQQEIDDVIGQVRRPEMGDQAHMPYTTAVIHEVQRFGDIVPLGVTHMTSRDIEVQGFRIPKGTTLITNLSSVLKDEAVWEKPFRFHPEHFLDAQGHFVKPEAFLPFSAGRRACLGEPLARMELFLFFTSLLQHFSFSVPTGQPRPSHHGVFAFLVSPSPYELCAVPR
CYP3A4, sequence (P08684 whole entry, species assumed): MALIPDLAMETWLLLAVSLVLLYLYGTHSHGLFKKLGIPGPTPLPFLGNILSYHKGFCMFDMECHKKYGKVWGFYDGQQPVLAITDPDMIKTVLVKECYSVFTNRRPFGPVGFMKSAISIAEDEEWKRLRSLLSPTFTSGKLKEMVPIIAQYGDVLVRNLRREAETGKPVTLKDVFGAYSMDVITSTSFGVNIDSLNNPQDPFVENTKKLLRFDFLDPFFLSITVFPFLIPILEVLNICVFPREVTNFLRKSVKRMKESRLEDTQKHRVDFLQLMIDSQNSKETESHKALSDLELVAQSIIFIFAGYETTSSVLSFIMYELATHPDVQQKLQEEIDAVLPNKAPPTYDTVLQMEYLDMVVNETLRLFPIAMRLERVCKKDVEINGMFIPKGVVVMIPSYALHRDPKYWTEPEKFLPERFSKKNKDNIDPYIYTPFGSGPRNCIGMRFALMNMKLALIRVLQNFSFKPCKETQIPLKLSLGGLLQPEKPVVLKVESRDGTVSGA
Lyn, sequence (P07948 whole entry, species assumed): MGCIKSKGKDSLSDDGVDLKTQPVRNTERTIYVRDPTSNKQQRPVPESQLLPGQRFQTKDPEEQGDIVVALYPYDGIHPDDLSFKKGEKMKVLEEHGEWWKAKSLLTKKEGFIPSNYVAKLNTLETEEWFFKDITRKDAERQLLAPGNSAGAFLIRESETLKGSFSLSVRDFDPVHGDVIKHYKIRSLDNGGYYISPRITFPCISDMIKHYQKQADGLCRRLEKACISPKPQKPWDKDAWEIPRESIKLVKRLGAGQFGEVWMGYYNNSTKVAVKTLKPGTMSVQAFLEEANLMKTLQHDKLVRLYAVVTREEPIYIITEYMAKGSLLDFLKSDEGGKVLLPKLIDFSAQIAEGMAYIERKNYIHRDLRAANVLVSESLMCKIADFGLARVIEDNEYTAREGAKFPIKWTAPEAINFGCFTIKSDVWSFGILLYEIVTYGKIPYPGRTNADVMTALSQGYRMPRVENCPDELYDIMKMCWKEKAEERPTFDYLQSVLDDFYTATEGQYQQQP
CSK, sequence (P41240 whole entry, species assumed): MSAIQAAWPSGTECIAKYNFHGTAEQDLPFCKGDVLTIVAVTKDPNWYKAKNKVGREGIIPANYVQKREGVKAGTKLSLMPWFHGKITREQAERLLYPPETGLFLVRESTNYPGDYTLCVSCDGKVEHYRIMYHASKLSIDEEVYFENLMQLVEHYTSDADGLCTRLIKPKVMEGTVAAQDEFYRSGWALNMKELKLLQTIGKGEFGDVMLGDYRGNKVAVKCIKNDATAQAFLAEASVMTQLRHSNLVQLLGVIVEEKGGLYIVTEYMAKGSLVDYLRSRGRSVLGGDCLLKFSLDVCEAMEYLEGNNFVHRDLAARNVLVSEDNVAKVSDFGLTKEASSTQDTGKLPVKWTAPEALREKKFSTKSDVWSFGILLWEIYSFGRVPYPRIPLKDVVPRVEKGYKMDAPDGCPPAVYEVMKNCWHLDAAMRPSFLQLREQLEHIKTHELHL
C-Met (HGFR), sequence (P08581 25-1390): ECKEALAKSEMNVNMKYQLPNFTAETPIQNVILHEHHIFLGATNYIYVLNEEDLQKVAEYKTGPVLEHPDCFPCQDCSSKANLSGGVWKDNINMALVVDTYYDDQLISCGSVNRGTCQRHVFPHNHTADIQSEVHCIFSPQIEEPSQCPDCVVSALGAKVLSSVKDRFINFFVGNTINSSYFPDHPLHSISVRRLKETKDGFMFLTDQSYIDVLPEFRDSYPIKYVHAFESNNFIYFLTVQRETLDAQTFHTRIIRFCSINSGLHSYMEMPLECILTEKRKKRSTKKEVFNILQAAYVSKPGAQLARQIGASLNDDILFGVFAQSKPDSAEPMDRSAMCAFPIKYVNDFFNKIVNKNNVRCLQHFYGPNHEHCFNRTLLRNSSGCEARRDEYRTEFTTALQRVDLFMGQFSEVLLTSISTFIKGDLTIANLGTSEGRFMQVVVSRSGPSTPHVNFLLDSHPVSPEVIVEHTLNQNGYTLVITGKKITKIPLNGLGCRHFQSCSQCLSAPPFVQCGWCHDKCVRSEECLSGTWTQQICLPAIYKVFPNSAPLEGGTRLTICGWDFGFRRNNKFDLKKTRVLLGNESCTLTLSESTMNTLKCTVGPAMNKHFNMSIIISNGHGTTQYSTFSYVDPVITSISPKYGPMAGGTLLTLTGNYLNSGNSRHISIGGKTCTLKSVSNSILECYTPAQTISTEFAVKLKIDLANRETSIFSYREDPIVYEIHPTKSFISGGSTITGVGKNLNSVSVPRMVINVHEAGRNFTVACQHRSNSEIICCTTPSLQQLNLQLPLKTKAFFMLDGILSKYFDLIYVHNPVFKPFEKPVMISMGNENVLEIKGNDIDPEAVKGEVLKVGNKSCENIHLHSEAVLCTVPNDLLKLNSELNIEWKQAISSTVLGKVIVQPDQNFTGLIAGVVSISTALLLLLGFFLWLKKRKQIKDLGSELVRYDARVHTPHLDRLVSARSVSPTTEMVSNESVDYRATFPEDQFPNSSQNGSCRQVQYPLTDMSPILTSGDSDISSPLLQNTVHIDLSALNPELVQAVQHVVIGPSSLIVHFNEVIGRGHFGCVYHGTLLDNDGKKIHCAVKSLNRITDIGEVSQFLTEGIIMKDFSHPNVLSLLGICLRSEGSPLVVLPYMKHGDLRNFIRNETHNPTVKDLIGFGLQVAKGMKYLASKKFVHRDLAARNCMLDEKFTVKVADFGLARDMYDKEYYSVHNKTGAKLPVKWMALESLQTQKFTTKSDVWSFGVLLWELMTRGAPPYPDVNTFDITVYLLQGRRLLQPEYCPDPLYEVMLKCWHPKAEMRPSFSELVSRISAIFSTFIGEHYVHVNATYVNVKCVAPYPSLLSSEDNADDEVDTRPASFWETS
PDGFRβ, sequence (P09619 33-1106, species assumed): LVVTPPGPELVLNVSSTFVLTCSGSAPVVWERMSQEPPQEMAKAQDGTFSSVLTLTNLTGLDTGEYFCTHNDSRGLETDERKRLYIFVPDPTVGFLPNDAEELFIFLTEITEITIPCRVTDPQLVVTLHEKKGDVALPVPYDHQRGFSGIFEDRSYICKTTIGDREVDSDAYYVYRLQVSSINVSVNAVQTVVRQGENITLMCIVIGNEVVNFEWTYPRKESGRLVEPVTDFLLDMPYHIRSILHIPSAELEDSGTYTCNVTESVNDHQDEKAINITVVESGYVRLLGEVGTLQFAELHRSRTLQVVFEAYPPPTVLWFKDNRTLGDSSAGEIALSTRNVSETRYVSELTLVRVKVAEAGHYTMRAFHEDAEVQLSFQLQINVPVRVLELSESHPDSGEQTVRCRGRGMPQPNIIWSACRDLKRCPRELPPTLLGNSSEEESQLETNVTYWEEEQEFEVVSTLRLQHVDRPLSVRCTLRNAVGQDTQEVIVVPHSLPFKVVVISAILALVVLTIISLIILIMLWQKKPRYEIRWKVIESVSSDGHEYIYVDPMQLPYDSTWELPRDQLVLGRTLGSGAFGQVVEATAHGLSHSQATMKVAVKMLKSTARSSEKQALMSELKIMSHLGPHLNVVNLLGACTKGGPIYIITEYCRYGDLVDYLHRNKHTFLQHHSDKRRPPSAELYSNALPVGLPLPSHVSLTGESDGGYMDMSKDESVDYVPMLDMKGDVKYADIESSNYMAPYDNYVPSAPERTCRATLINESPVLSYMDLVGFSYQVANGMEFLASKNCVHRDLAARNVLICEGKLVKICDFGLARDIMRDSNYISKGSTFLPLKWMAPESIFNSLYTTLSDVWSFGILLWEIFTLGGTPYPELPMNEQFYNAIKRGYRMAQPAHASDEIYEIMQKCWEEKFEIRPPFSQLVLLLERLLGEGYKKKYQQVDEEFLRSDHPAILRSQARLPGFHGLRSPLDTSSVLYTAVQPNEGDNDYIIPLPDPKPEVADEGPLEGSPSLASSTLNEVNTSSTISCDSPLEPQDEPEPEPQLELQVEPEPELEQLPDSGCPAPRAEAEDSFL

SMILES: COc1ccc(-c2cc(-c3ccc4c(c3)OCO4)cc(=O)[nH]2)c(OC)c1 [Compound III]
- IC50 at 96 h [1]: 0.95 ± 0.35 µM
- toxicity / activity in CYP1A1 expressing CHO cells (in words) (CHO/CYP1A1 cells): active
- IC50 at 96 h [2, 4]: 40 ± 30 nM
- activity against CHO/CYP1B1 cells (in words) (CHO/CYP1B1 cells): active
- IC50 (wild-type CHO cells): 6.11 ± 0.34 µM

SMILES: CCCOc1ccc(-c2cc(-c3ccc(OC)c(OC)c3)[nH]c(=O)c2)cc1 [Compound II]
- IC50 at 96 h [1]: > 50 µM
- toxicity / activity in CYP1A1 expressing CHO cells (in words) (CHO/CYP1A1 cells): non toxic
- Mean Parent Remaining (%) (CYP1A2; 1 μM, after 60 minutes): 69%
- Mean Parent Remaining (%) (CYP3A5; 1 μM, after 60 minutes): 126%
- IC50 at 96 h [2, 4]: 90 ± 50 nM
- activity against CHO/CYP1B1 cells (in words) (CHO/CYP1B1 cells): strongly inhibit proliferation
- toxicity to wild-type CHO cells (in words) (wild-type CHO cells): non toxic
- IC50 (wild-type CHO cells): > 50 µM
- wet tumour weight at the end of the study (FIG. 2) [3]: dose dependent reduction in wet tumour weight
- Mean Parent Remaining (%) (CYP3A4): 122%
- Mean Parent Remaining (%) (CYP2C9): 130%
- Mean Parent Remaining (%) (CYP2D6): 127%
- Mean Parent Remaining (%) (CYP2C19): 127%

SMILES: CCOc1ccc2nc3ccc(=O)cc-3oc2c1 [Ethoxy-resorufin, 7-ethoxyresorufin, reference compound]
- % Reference Compound Remaining (CYP1A2; reference compound): 0%

SMILES: COc1ccc(-c2cc(-c3ccc4c(c3)OCO4)cc(=O)[nH]2)cc1 [Compound VI]
- IC50 at 96 h [1]: > 100 µM
- toxicity / activity in CYP1A1 expressing CHO cells (in words) (CHO/CYP1A1 cells): non toxic
- IC50 at 96 h ([2]; text of b216, read-out: IC50, proliferation of CHO/CYP1B1 cells): 500 nM
- activity against CHO/CYP1B1 cells (in words) (CHO/CYP1B1 cells): strongly inhibit proliferation
- toxicity to wild-type CHO cells (in words) (wild-type CHO cells): non toxic
- IC50 (wild-type CHO cells): > 100 µM

SMILES: Cc1ncc2n1-c1ccc(Cl)cc1C(c1ccccc1F)=NC2 [Midazolam, reference compound]
- % Reference Compound Remaining (CYP3A5; reference compound): 1%

SMILES: COc1ccc(-c2cc(-c3ccc(O)c(O)c3)cc(=O)[nH]2)cc1OC [Compound XI]
- inhibition at 10 µM (FLT-3): 93%
- inhibition at 10 µM (Lyn): 99%
- inhibition at 10 µM (FGFR4): 85%
- inhibition at 10 µM (FGFR2): 98%
- inhibition at 10 µM (C-Met (HGFR)): 58%
- inhibition at 10 µM (CSK): 98%
- inhibition at 10 µM (KDR (VEGFR2)): 96%
- inhibition at 10 µM (PDGFRβ): 91%
- inhibition at 10 µM (Fyn): 100%
- inhibition at 10 µM (FLT-1): 98%
